Data published in PMC10673995, “Discovery of a novel cardiac-specific myosin modulator using artificial intelligence-based virtual screening” (Nature Communications, 2023).
Where “and” joins values, the source holds several entries; their conditions need not be identical. Equal entries are not always repeated.

Tests used:
[1] = molecular target: T1, synthetic thick filaments formed from purified full-length bovine β-cardiac myosin (Bos taurus, UniProt Q9BE39); assay: mant-ATP chase single nucleotide turnover, synthetic thick filaments; type: biochemical; settings: for Representative Traces (mant-ATP chase, fluorescence signal over time): Figure 3b
T1 construct: diluting full-length bovine cardiac myosin stock into assay buffer; from tissue; host or cells: bovine cardiac muscle (the text says isolated/purified and describes no preparation)
Text: We used systems of increasing complexity ranging from the isolated cardiac myosin motor domains (Fig. 3a) to synthetic thick filaments formed from purified full-length bovine cardiac myosin (Fig. 3b) and bovine cardiac myofibrils as substrates in the chase assays (Fig. 3c). In contrast to the isolated myosin motors, synthetic thick filaments contain two myosin head domains per molecule connected via their coiled-coil tail.
Synthetic thick filaments were freshly prepared by diluting full-length bovine cardiac myosin stock into assay buffer (composition in mmol L^−1: 15 PIPES pH 7, 5 MgCl2, 1 DTT) and incubation on ice for 2 h. Bovine myosin S1 and synthetic thick filament concentrations were adjusted to 0.4 μmol L^−1 with assay buffer and 40 μL aliquoted into individual wells of a black 384-well plate (Greiner). Mant-ATP (JenaBioscience) was added to each well to a final concentration of 0.4 μmol L^−1 using an automated injector unit in a ClarioStar Plate Reader (BMG LabTech) and the system was allowed to age for 1 min. The chase phase was started by adding a final concentration of 2 mmol L^−1 ATP using a second automated injector unit. Fluorescence intensity from each well was constantly measured for 15 min every 1 sec at 25 °C with the following settings: excitation at 360 nm with a 20 nm bandwidth and emission at 450 nm with a 20 nm bandwidth. For experiments with cardiac myofibrils the concentration was adjusted to 1 mg m L^−1, and the mant-ATP and ATP concentrations were increased to 20 μmol L^−1 and 20 mmol L^−1, respectively.

bovine cardiac myosin S1 = bovine cardiac myosin S1 (Bos taurus, UniProt Q9BE39); assay: mant-ATP chase single nucleotide turnover, myosin S1; settings: for Representative Traces (mant-ATP chase, normalised signal): representative trace, sheet Figure 3a;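 on all read-outs here: 0.4 µM S1 preloaded with equimolar mant-ATP, chased by 2 mM ATP, mant fluorescence (ex 360, em 450 nm) read each second over 15 min at 25 °C, biexponential fit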
Text: Chase of mant-ATP loaded cardiac myosin S1 with ATP leads to a decrease in the mant fluorescence intensity which is best described by a bi-exponential decay function with an initial fast phase followed by a second slower phase, corresponding to the so-called disordered (DRX) and super-relaxed state (SRX) of myosin, respectively.

[2] = Synthetic Myosin Filaments, individual replicates
[3] = Beta-cardiac myosin S1, individual replicates

T1 sequence (Q9BE39 whole entry): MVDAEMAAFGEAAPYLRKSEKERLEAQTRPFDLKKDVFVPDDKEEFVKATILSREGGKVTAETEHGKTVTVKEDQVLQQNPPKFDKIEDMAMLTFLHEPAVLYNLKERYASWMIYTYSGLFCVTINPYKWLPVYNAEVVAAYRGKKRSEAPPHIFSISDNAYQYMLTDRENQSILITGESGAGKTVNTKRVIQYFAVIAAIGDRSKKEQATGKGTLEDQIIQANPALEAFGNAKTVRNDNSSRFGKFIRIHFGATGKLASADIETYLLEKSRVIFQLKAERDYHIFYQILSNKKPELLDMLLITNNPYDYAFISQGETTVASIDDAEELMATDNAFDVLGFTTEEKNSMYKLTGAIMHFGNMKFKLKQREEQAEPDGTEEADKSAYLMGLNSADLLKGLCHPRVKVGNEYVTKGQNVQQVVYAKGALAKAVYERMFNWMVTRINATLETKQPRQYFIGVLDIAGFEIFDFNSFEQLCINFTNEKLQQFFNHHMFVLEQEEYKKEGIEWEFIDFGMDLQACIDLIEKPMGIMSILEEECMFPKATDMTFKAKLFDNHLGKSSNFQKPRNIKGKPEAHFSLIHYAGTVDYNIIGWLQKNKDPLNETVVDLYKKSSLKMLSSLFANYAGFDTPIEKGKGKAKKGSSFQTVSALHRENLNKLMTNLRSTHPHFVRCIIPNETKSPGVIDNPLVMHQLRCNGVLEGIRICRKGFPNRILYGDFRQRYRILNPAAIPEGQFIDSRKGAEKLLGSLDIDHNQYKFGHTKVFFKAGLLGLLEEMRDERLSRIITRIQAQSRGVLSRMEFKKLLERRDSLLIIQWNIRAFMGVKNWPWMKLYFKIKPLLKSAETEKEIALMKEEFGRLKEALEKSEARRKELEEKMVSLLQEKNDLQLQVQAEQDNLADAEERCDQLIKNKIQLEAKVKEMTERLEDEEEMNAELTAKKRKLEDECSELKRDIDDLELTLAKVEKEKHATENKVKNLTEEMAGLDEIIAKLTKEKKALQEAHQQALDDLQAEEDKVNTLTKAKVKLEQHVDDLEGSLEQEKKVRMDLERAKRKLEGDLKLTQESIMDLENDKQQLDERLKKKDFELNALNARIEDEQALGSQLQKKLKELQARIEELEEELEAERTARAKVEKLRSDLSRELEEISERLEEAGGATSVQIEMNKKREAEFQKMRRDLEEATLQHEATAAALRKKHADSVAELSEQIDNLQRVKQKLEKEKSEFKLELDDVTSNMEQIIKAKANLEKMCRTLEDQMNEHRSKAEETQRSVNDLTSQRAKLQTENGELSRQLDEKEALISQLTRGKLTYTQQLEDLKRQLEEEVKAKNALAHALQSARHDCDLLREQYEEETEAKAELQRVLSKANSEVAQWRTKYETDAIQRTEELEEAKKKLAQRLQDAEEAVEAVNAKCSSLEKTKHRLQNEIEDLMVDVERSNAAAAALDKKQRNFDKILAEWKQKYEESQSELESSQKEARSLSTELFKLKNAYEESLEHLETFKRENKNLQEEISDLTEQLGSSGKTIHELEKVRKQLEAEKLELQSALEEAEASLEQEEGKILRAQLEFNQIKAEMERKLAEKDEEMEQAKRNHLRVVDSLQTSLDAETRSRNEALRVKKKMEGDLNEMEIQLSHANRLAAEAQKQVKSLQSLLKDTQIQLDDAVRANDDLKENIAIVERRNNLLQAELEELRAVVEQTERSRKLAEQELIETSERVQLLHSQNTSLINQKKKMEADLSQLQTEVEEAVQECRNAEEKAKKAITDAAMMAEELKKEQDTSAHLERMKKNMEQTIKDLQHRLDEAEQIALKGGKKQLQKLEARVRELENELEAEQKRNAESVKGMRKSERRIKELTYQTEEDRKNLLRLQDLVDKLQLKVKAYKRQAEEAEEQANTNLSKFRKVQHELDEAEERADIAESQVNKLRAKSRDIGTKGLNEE
T1 sequence (P85100 whole entry partner): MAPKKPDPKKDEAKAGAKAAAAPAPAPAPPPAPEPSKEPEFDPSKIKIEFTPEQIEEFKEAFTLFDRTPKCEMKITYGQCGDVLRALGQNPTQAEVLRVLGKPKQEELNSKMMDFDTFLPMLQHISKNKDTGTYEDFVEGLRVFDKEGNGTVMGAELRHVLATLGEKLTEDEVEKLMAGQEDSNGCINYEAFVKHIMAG
T1 sequence (Q3SZE5 whole entry partner): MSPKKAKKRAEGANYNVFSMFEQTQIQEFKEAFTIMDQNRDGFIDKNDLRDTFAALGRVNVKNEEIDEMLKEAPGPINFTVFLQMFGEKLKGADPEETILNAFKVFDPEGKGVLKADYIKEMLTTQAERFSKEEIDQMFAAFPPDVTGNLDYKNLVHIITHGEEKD
Chain of bovine cardiac myosin S1 (Q9BE39 85-778 limits assumed): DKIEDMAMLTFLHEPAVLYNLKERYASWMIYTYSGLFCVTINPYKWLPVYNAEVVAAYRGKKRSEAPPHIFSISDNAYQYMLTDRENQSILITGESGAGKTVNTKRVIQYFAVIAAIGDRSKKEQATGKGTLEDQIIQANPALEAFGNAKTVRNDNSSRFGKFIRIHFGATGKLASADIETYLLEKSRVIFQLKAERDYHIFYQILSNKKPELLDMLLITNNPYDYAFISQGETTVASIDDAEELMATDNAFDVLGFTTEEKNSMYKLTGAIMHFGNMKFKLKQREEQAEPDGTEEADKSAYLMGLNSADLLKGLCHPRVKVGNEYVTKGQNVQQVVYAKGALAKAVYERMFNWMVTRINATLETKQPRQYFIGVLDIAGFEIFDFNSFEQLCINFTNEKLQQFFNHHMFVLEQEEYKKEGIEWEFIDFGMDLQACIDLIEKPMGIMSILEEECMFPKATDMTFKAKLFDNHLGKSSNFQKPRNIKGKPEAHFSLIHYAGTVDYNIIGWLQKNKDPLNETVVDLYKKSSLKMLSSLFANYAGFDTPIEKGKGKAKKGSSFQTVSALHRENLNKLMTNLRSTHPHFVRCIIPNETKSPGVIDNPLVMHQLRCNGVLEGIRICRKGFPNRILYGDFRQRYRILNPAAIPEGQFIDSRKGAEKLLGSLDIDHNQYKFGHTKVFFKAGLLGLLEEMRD
Chain of bovine cardiac myosin S1 (P85100 whole entry partner): as the sequence (P85100 whole entry partner) above

For `CCc1cc2c(=O)n(NC(=S)NC(C)C)cnc2s1` [F10], the “effect on the rate of the fast DRX phase” value [1] was “no effect”, the “Bar graph (Figure 3b, mant-ATP chase)” value ([1]; Figure 3b source data, individual replicate values) was 60.72 and 53.1 and 55.77 and 61 and 84.67 and 56.52 and 70.86 and the “Representative Traces (mant-ATP chase, fluorescence signal over time)” value ([1]; t = 796 s) was 0.1829. The “Representative Traces (mant-ATP chase, fluorescence signal over time)” value ([1]; t = 797 s) was 0.2272, the kfast [1, 2] was 0.05914 s⁻¹ and 0.02268 s⁻¹ and 0.03788 s⁻¹ and 0.03196 s⁻¹ and 0.0963 s⁻¹ and 0.1619 s⁻¹ and the kslow [1, 2] was 0.004733 s⁻¹ and 0.003729 s⁻¹ and 0.003941 s⁻¹ and 0.001622 s⁻¹ and 0.001835 s⁻¹ and 0.001574 s⁻¹. The slow phase [1, 2] was 53.1% and 55.77% and 61% and 84.67% and 56.52% and 70.86%, the kslow ([1]; control 0.0046 ± 0.0007) was 0.0027 ± 0.0005 s⁻¹ and the “Slow Phase [%] (SRX amplitude)” value ([1]; control 22.9 ± 2.8) was 63.2 ± 4.2% and ~63%. For the same compound, the kfast ([1]; control […]) was 0.0784 ± 0.0208 s⁻¹, the kslow (bovine cardiac myosin S1; 2 μmol L^-1 Mavacamten or 20 μmol L^-1 F10, control 0.0058 ± 0.0010) was 0.0014 ± 0.0002 s⁻¹ and the kfast (bovine cardiac myosin S1; [3]) was 0.05055 s⁻¹ and 0.0447 s⁻¹ and 0.0368 s⁻¹ and 0.05306 s⁻¹ and 0.06378 s⁻¹ and 0.02378 s⁻¹. For the same compound, the kslow (bovine cardiac myosin S1; [3]) was 0.0006967 s⁻¹ and 0.00183 s⁻¹ and 0.001814 s⁻¹ and 0.000778 s⁻¹ and 0.001483 s⁻¹ and 0.001764 s⁻¹, the slow phase (bovine cardiac myosin S1; [3]) was 77.15% and 78.62% and 63.91% and 49.91% and 65.48% and 83.8% and the “Representative Traces, normalised fluorescence” value (bovine cardiac myosin S1; t 396 s) was 0.3381. The “Representative Traces, normalised fluorescence” value (bovine cardiac myosin S1; t 397 s) was 0.3913, the “Representative Traces, normalised fluorescence” value (bovine cardiac myosin S1; t 398 s) was 0.3527 and the “Representative Traces, normalised fluorescence” value (bovine cardiac myosin S1; t 399 s) was 0.3731. For the same compound, the “Representative Traces, normalised fluorescence” value (bovine cardiac myosin S1; t 400 s) was 0.3893, the “Representative Traces, normalised fluorescence” value (bovine cardiac myosin S1; t 401 s) was 0.3649 and the “Representative Traces, normalised fluorescence” value (bovine cardiac myosin S1; t 402 s) was 0.346. The “Representative Traces, normalised fluorescence” value (bovine cardiac myosin S1; t 403 s) was 0.3664, the “Representative Traces, normalised fluorescence” value (bovine cardiac myosin S1; t 404 s) was 0.3754 and the “Representative Traces, normalised fluorescence” value (bovine cardiac myosin S1; t 405 s) was 0.395. The “Representative Traces, normalised fluorescence” value (bovine cardiac myosin S1; t 406 s) was 0.3542, the “Representative Traces, normalised fluorescence” value (bovine cardiac myosin S1; t 407 s) was 0.3529 and the “Representative Traces, normalised fluorescence” value (bovine cardiac myosin S1; t 408 s) was 0.371. For the same compound, the “Representative Traces, normalised fluorescence” value (bovine cardiac myosin S1; t 409 s) was 0.3805, the “Representative Traces, normalised fluorescence” value (bovine cardiac myosin S1; t 410 s) was 0.3829 and the “Representative Traces, normalised fluorescence” value (bovine cardiac myosin S1; t 411 s) was 0.3594. The “Representative Traces, normalised fluorescence” value (bovine cardiac myosin S1; t 412 s) was 0.3318, the “Representative Traces, normalised fluorescence” value (bovine cardiac myosin S1; t 413 s) was 0.3454 and the “Representative Traces, normalised fluorescence” value (bovine cardiac myosin S1; t 414 s) was 0.3732. The “Representative Traces, normalised fluorescence” value (bovine cardiac myosin S1; t 415 s) was 0.3239, the “Representative Traces, normalised fluorescence” value (bovine cardiac myosin S1; t 416 s) was 0.3536 and the “Representative Traces, normalised fluorescence” value (bovine cardiac myosin S1; t 417 s) was 0.3763. The “Representative Traces, normalised fluorescence” value (bovine cardiac myosin S1; t 418 s) was 0.4062, the “Representative Traces, normalised fluorescence” value (bovine cardiac myosin S1; t 419 s) was 0.3409 and the “Representative Traces, normalised fluorescence” value (bovine cardiac myosin S1; t 420 s) was 0.3417. The “Representative Traces, normalised fluorescence” value (bovine cardiac myosin S1; t 421 s) was 0.3218, the “Representative Traces, normalised fluorescence” value (bovine cardiac myosin S1; t 422 s) was 0.3761 and the “Representative Traces, normalised fluorescence” value (bovine cardiac myosin S1; t 423 s) was 0.3809. The “Representative Traces, normalised fluorescence” value (bovine cardiac myosin S1; t 424 s) was 0.3886, the “Representative Traces, normalised fluorescence” value (bovine cardiac myosin S1; t 425 s) was 0.4176 and the “Representative Traces, normalised fluorescence” value (bovine cardiac myosin S1; t 426 s) was 0.3716. The “Representative Traces, normalised fluorescence” value (bovine cardiac myosin S1; t 427 s) was 0.348, the “Representative Traces, normalised fluorescence” value (bovine cardiac myosin S1; t 428 s) was 0.3822 and the “Representative Traces, normalised fluorescence” value (bovine cardiac myosin S1; t 429 s) was 0.3572. For the same compound, the “Representative Traces, normalised fluorescence” value (bovine cardiac myosin S1; t 430 s) was 0.3286, the “Representative Traces, normalised fluorescence” value (bovine cardiac myosin S1; t 431 s) was 0.4152 and the “Representative Traces, normalised fluorescence” value (bovine cardiac myosin S1; t 432 s) was 0.3207. The “Representative Traces, normalised fluorescence” value (bovine cardiac myosin S1; t 433 s) was 0.376, the “Representative Traces, normalised fluorescence” value (bovine cardiac myosin S1; t 434 s) was 0.351 and the “Representative Traces, normalised fluorescence” value (bovine cardiac myosin S1; t 435 s) was 0.3814. The “Representative Traces, normalised fluorescence” value (bovine cardiac myosin S1; t 436 s) was 0.3747, the “Representative Traces, normalised fluorescence” value (bovine cardiac myosin S1; t 437 s) was 0.339 and the “Representative Traces, normalised fluorescence” value (bovine cardiac myosin S1; t 438 s) was 0.3394. The “Representative Traces, normalised fluorescence” value (bovine cardiac myosin S1; t 439 s) was 0.2828, the “Representative Traces, normalised fluorescence” value (bovine cardiac myosin S1; t 440 s) was 0.3588 and the “Representative Traces, normalised fluorescence” value (bovine cardiac myosin S1; t 441 s) was 0.3824. The “Representative Traces, normalised fluorescence” value (bovine cardiac myosin S1; t 442 s) was 0.3473, the “Representative Traces, normalised fluorescence” value (bovine cardiac myosin S1; t 443 s) was 0.3776 and the “Representative Traces, normalised fluorescence” value (bovine cardiac myosin S1; t 444 s) was 0.2942. The “Representative Traces, normalised fluorescence” value (bovine cardiac myosin S1; t 445 s) was 0.3451, the “Representative Traces, normalised fluorescence” value (bovine cardiac myosin S1; t 446 s) was 0.3599 and the “Representative Traces, normalised fluorescence” value (bovine cardiac myosin S1; t 447 s) was 0.3632. For the same compound, the “Representative Traces, normalised fluorescence” value (bovine cardiac myosin S1; t 448 s) was 0.3962, the “Representative Traces, normalised fluorescence” value (bovine cardiac myosin S1; t 449 s) was 0.3522 and the “Representative Traces, normalised fluorescence” value (bovine cardiac myosin S1; t 450 s) was 0.334. For the same compound, the “Representative Traces, normalised fluorescence” value (bovine cardiac myosin S1; t 451 s) was 0.3312, the “Representative Traces, normalised fluorescence” value (bovine cardiac myosin S1; t 452 s) was 0.3355 and the “Representative Traces, normalised fluorescence” value (bovine cardiac myosin S1; t 453 s) was 0.3202. For the same compound, the “Representative Traces, normalised fluorescence” value (bovine cardiac myosin S1; t 454 s) was 0.3011, the “Representative Traces, normalised fluorescence” value (bovine cardiac myosin S1; t 455 s) was 0.3492 and the “Representative Traces, normalised fluorescence” value (bovine cardiac myosin S1; t 456 s) was 0.2942. The “Representative Traces, normalised fluorescence” value (bovine cardiac myosin S1; t 457 s) was 0.3901, the “Representative Traces, normalised fluorescence” value (bovine cardiac myosin S1; t 458 s) was 0.3305 and the “Representative Traces, normalised fluorescence” value (bovine cardiac myosin S1; t 459 s) was 0.3712. The “Representative Traces, normalised fluorescence” value (bovine cardiac myosin S1; t 460 s) was 0.3492, the “Representative Traces, normalised fluorescence” value (bovine cardiac myosin S1; t 461 s) was 0.3691 and the “Representative Traces, normalised fluorescence” value (bovine cardiac myosin S1; t 462 s) was 0.3499. For the same compound, the “Representative Traces, normalised fluorescence” value (bovine cardiac myosin S1; t 463 s) was 0.3959, the “Representative Traces, normalised fluorescence” value (bovine cardiac myosin S1; t 464 s) was 0.3352 and the “Representative Traces, normalised fluorescence” value (bovine cardiac myosin S1; t 465 s) was 0.2964. For the same compound, the “Representative Traces, normalised fluorescence” value (bovine cardiac myosin S1; t 466 s) was 0.3332, the “Representative Traces, normalised fluorescence” value (bovine cardiac myosin S1; t 467 s) was 0.3397 and the “Representative Traces, normalised fluorescence” value (bovine cardiac myosin S1; t 468 s) was 0.2957. The “Representative Traces, normalised fluorescence” value (bovine cardiac myosin S1; t 469 s) was 0.3164, the “Representative Traces, normalised fluorescence” value (bovine cardiac myosin S1; t 470 s) was 0.3318 and the “Representative Traces, normalised fluorescence” value (bovine cardiac myosin S1; t 471 s) was 0.303. For the same compound, the “Representative Traces, normalised fluorescence” value (bovine cardiac myosin S1; t 472 s) was 0.2843, the “Representative Traces, normalised fluorescence” value (bovine cardiac myosin S1; t 473 s) was 0.3488 and the “Representative Traces, normalised fluorescence” value (bovine cardiac myosin S1; t 474 s) was 0.3514. The “Representative Traces, normalised fluorescence” value (bovine cardiac myosin S1; t 475 s) was 0.3348, the “Representative Traces, normalised fluorescence” value (bovine cardiac myosin S1; t 476 s) was 0.2621 and the “Representative Traces, normalised fluorescence” value (bovine cardiac myosin S1; t 477 s) was 0.3016. For the same compound, the “Representative Traces, normalised fluorescence” value (bovine cardiac myosin S1; t 478 s) was 0.2808, the “Representative Traces, normalised fluorescence” value (bovine cardiac myosin S1; t 479 s) was 0.2939 and the “Representative Traces, normalised fluorescence” value (bovine cardiac myosin S1; t 480 s) was 0.3383. The “Representative Traces, normalised fluorescence” value (bovine cardiac myosin S1; t 481 s) was 0.3502, the “Representative Traces, normalised fluorescence” value (bovine cardiac myosin S1; t 482 s) was 0.3436 and the “Representative Traces, normalised fluorescence” value (bovine cardiac myosin S1; t 483 s) was 0.4051. For the same compound, the “Representative Traces, normalised fluorescence” value (bovine cardiac myosin S1; t 484 s) was 0.3367, the “Representative Traces, normalised fluorescence” value (bovine cardiac myosin S1; t 485 s) was 0.376 and the “Representative Traces, normalised fluorescence” value (bovine cardiac myosin S1; t 486 s) was 0.3528. For the same compound, the “Representative Traces, normalised fluorescence” value (bovine cardiac myosin S1; t 487 s) was 0.3472, the “Representative Traces, normalised fluorescence” value (bovine cardiac myosin S1; t 488 s) was 0.3853 and the “Representative Traces, normalised fluorescence” value (bovine cardiac myosin S1; t 489 s) was 0.3935. For the same compound, the “Representative Traces, normalised fluorescence” value (bovine cardiac myosin S1; t 490 s) was 0.3358, the “Representative Traces, normalised fluorescence” value (bovine cardiac myosin S1; t 491 s) was 0.3169 and the “Representative Traces, normalised fluorescence” value (bovine cardiac myosin S1; t 492 s) was 0.3123. The “Representative Traces, normalised fluorescence” value (bovine cardiac myosin S1; t 493 s) was 0.2845, the “Representative Traces, normalised fluorescence” value (bovine cardiac myosin S1; t 494 s) was 0.2849 and the “Representative Traces, normalised fluorescence” value (bovine cardiac myosin S1; t 495 s) was 0.3259. The “Representative Traces (mant-ATP chase, normalised signal)” value (bovine cardiac myosin S1; t = 796 s) was 0.1783 and the “Representative Traces (mant-ATP chase, normalised signal)” value (bovine cardiac myosin S1; t = 797 s) was 0.1159.
